# “Also recorded” adds a separate entry of the source. Where a SMILES comes first, the peptide text is derived from it.
# What was measured:
# [1] = tested on: bleomycin-induced lung fibrosis; experiment: Bleomycin-induced pulmonary fibrosis in mice, peptide given intratracheally; conditions: for lung fibrosis measured as lung hydroxyproline, second trial: 250 μg IT daily for two weeks starting day 7, n=6 (FIG. 6); for lung fibrosis on histology (H&E), second trial: 250 μg per day IT for 2 weeks starting day 7 (FIG. 5); for pulmonary fibrosis, summary statement: intra-tracheal administration to bleomycin-exposed mice
# [2] = tested on: bleomycin-induced lung fibrosis; conditions: background statement; cited from earlier work
# rhACE = rhACE (Homo sapiens, UniProt P12821); conditions: not told
# rhACE, sequence (P12821 30-1306): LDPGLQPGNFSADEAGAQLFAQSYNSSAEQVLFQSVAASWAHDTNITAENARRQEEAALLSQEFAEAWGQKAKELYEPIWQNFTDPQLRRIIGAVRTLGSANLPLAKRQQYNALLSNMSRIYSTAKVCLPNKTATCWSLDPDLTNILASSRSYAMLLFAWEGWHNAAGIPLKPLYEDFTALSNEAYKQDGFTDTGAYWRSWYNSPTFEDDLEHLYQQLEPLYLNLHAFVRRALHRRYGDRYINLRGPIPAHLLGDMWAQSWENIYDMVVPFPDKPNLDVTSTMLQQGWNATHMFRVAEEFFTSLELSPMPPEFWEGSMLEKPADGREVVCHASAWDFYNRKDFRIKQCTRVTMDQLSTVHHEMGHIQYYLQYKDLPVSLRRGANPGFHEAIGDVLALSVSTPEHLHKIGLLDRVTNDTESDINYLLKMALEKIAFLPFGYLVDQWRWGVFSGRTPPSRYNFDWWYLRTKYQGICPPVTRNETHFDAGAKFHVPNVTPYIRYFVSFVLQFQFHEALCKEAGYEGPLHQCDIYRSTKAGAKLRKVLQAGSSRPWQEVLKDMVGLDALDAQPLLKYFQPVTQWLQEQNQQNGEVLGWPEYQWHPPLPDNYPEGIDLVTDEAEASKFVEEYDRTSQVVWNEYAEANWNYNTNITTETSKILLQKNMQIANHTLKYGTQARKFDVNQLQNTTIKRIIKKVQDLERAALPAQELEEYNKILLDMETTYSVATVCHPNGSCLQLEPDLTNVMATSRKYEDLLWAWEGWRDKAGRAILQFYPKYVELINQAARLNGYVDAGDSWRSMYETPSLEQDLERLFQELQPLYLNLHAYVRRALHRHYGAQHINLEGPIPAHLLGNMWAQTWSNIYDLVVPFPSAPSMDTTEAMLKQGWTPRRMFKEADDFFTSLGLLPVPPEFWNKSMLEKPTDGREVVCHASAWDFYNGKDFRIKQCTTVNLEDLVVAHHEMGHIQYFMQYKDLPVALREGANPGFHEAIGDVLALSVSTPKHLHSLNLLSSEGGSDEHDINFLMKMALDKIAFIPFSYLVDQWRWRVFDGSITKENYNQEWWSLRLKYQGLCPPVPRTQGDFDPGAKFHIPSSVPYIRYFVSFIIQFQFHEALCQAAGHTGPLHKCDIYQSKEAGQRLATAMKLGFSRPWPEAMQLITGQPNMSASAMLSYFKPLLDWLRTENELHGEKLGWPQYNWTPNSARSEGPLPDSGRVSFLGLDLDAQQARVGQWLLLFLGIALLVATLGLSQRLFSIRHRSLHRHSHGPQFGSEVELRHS
# [3] = tested on: CXC receptors on neutrophils; conditions: Haddox et al. 1999; cited from earlier work
# [4] = tested on: IMR-90 fibroblasts differentiated to myofibroblasts; experiment: Western blot of matrix and differentiation markers in IMR-90 myofibroblasts (TGF-β plus Ac-PGP); type: cell-based, human
# Procedure: IMR-90 fibroblasts were differentiated to myofibroblasts with TGF-β 2.5 ng/ml. Ac-PGP at differing concentrations (0, 1, 3, 10 and 30 μg/ml) was added at the same time. Whole cell lysates were obtained after 48 h and probed by WB for the indicated proteins.
# (§1) The simplest explanation for this is a direct effect of Ac-PGP on the myofibroblast, altering its phenotype to stop or perhaps reverse fibrosis. […] Human lung fibroblasts were co-incubated with TGF-β and Ac-PGP and the effects on matrix generation and markers of MF activation and differentiation were observed.
# IMR-90 fibroblasts = experiment: Scratch wound migration of IMR-90 fibroblasts and TGF-β1-differentiated myofibroblasts; type: cell-based, human; conditions: 100 μM Ac-PGP, 48 h
# Procedure: FIGS. 11A-H show IMR-90 fibroblasts under different conditions. IMR-90 fibroblasts were grown to 80-90% confluence (A, C) and differentiated to myofibroblasts with TGF-β1 (E, G). A scratch was made and 100 μM Ac-PGP was added to some cells (FIGS. 11C, G).
# as §1
# [5] = TGF-β 2.5 ng/ml, Ac-PGP 1-30 μg/ml, 48 h, WB
Ac-PGP breakdown by rhACE (in words) (rhACE),SMILES,"lung fibrosis measured as lung hydroxyproline, second trial [1]","lung fibrosis on histology (H&E), second trial [1]","pulmonary fibrosis, summary statement [1]",fibrosis in the bleomycin model [2],"effectiveness on lung fibrosis measured as lung hydroxyproline ([1]; 125 μg per day IT, days 7 to 21, n=8 (FIG. 4))","effectiveness at abrogating bleomycin-induced pulmonary fibrosis, second trial ([1]; 250 μg IT daily (FIG. 5)) [%]","lung fibrosis measured as lung hydroxyproline ([1]; 250 μg IT daily for two weeks starting day 7, n=8 (FIG. 4))","lung fibrosis on lung histology (H&E) ([1]; Ac-PGP 125 μg IT per day, days 7 to 21 after bleomycin (FIG. 3))","lung fibrosis on lung histology (H&E) ([1]; Ac-PGP 250 μg IT daily for two weeks starting day 7 after bleomycin, vs PBS-treated controls (FIG. 3))",potency relative to PGP [3],"myofibroblast differentiation and pro-fibrotic functions in vitro, summary statement [4]","SRC phosphorylation [4, 5]","collagen expression [4, 5]","fibronectin expression [4, 5]","α-SMA expression [4, 5]",dose giving the greatest inhibition of myofibroblasts ([4]; lesser effects at 30 and 10 μg/ml) [µg/mL],migration of un-differentiated fibroblasts across the wound (IMR-90 fibroblasts),migration of myofibroblasts across the wound (IMR-90 fibroblasts; TGF-β1-differentiated)
,"O=C(NCC(=O)N1CCC[C@H]1C(=O)O)[C@@H]1CCCN1 [PGP, proline-glycine-proline] (H-Pro-Gly-Pro-OH; C-terminus assumed)",less effective,partially effective; also recorded: half as effective,partial effect,,,,,,,,,,,,,,,
,"C[C@H](CS)C(=O)N1CCC[C@H]1C(=O)O [Captopril, reference compound]",,,,reduces fibrosis,,,,,,,,,,,,,,
degraded,"CC(=O)N1CCC[C@H]1C(=O)NCC(=O)N1CCC[C@H]1C(=O)O [Ac-PGP, N-acetyl-proline-glycine-proline] (Ac-Pro-Gly-Pro-OH; C-terminus assumed)",almost completely abrogates,abrogates,abrogated pulmonary fibrosis dose-dependently; also recorded: dramatic inhibition of fibrosis; also recorded: greatly reduces fibrosis,,about 50%,~100,almost completely abrogates,intermediate effect; also recorded: about half as effective,almost completely abrogates lung fibrosis; also recorded: almost completely abrogated,several times more potent,inhibited myofibroblast differentiation and pro-fibrotic functions,reduced,reduced,reduced,reduced,3,did not affect; also recorded: but not fibroblasts,markedly reduced; also recorded: inhibited migration

# — patent US10335448B2, “Compositions and methods for inhibiting fibrosis” (The UAB Research Foundation, priority 2014, dated 2019)
